For 24 molecules, EC50 and IC50 results are on record in US20240327334A1, “Covalent Inhibitors As Antiviral Agents” (Enanta Pharmaceuticals, Inc., priority 2022, published 2024).

For experiment [1], the system named is SARS-CoV-2 USA-WA1/2020. The experiment can be described thus: microbe, parasite or virus in culture. The format is cell-based. Conditions: read-out: SARS-CoV-2 BSL3 EC50.
Experiment [2] deals with SARS-CoV-2 Papain-like (PLpro) protease (Severe acute respiratory syndrome coronavirus 2, UniProt P0DTD1). The experiment can be described thus: SARS-CoV-2 Papain-like (PLpro) protease biochemical enzyme inhibition assay (ubiquitin-fluorophore substrate, Ub-R110). The conditions noted are these: Ub-R110 substrate; run in duplicate; read-out: PLpro IC50.
In experiment [3] the test system is SARS-CoV-2 replicon. The experiment can be described thus: microbe, parasite or virus in culture. Type of experiment: cell-based. Conditions: Severe acute respiratory syndrome coronavirus 2, Huh-7.
Where [4] appears, read: Severe acute respiratory syndrome coronavirus 2, 144 h, Vero 76 cells, SARS-CoV-2 USA-WA1/2020, neutral red, day 6.

Read-outs that look alike come from different tables or passages of the source.

For the molecule `COC(=O)/C=C/CCNC(=O)C(=O)NCc1ccccc1C(=O)N[C@H](C)c1cccc2ccccc12` [Example 1], the concentration giving a half-maximal response (EC50) in experiment [1] (setting [4]) and in experiment [3] was less than 1000 nM each time. In addition, in experiment [2], the IC50 was less than 100 nM.
Turning to `COC(=O)/C=C/CNC(=O)C(=O)NCc1ccccc1C(=O)N[C@H](C)c1cccc2ccccc12` [Example 2], the EC50 in experiment [1] (setting [4]) and in experiment [3] was less than 1000 nM in each case. The IC50 in experiment [2] was less than 100 nM.
`COC(=O)/C=C/CCNC(=O)C(=O)NCc1ccccc1C(=O)NC1(c2cccc3ccccc23)CC1` [Example 3]: the concentration for a half-maximal effect (EC50) in experiment [1] (setting [4]) and in experiment [3] was less than 1000 nM in each case. Also, the IC50 in experiment [2] was less than 100 nM.
With `N#CCNC(=O)C(=O)NCc1ccc(-c2ccn(C(F)F)n2)cc1C(=O)NC1(c2ccc(F)c3ccccc23)CC1` [Example 125], the EC50 in experiment [1] (setting [4]) was less than 1000 nM; in experiment [3] it was 1000 to 10000 nM. In addition, the IC50 in experiment [2] was less than 100 nM.
With `C#CCNC(=O)C(=O)NCc1ccc(-c2ccn(C(F)F)n2)cc1C(=O)NC1(c2ccc(F)c3ccccc23)CC1` [Example 126], the half-maximal effective concentration (EC50) in experiment [1] (setting [4]) and in experiment [3] was less than 1000 nM throughout. In experiment [2], the half-maximal inhibitory concentration (IC50) was less than 100 nM.
As to `N#CCNC(=O)C(=O)NCc1ccccc1C(=O)NC1(c2cc(Cl)cc(-c3cccs3)c2)CC1` [Example 457, N1-(2-((1-(3-chloro-5-(thiophen-2-yl)phenyl)cyclopropyl)carbamoyl)benzyl)-N2-(cyanomethyl)oxalamide], the EC50 in experiment [1] (Severe acute respiratory syndrome coronavirus 2, Vero 76, 144 h) lay in the range of 1000 to 10000 nM; in experiment [3], 1000 to 10000 nM. Besides, in experiment [2], the IC50 was less than 100 nM.
`O=C(C#CCNC(=O)C(=O)NCc1ccccc1C(=O)NC1(c2cccc3ccccc23)CC1)NC1CC1` [Example 518]: the EC50 in experiment [1] (setting [4]) and in experiment [3] was less than 1000 nM throughout. Moreover, the IC50 in experiment [2] was less than 100 nM.
On to `O=C(C#CCNC(=O)C(=O)NCc1ccccc1C(=O)NC1(c2cccc3ccccc23)CC1)N[C@]12C[C@](C(F)(F)F)(C1)C2` [Example 525], for which the EC50 is 1000 to 10000 nM in experiment [1] (setting [4]) and less than 1000 nM in experiment [3]. Besides, the IC50 in experiment [2] is less than 100 nM.
On the same counts, the results for `O=C(NCC#CC(=O)N1CC2CC2C1)C(=O)NCc1ccccc1C(=O)NC1(c2ccc3ccccc3c2)CC1` (centres unmarked) [Example 527] are less than 1000 nM, less than 1000 nM and less than 100 nM.
As for `O=C(NCC#CC(=O)N1CC2CC2C1)C(=O)NCc1ccccc1C(=O)NC1(c2cccc3ccccc23)CC1` (centres unmarked) [Example 528], the half-maximal effective concentration (EC50) in experiment [1] (setting [4]) and in experiment [3] was less than 1000 nM throughout. The 50% inhibitory concentration (IC50) in experiment [2] is less than 100 nM.
Regarding `O=C(NCC#CC(=O)N1CC(F)(F)C1)C(=O)NCc1ccccc1C(=O)NC1(c2cccc3ccccc23)CC1` [Example 529], the half-maximal effective concentration (EC50) in experiment [1] (setting [4]) and in experiment [3] was less than 1000 nM in each case. Also, the IC50 in experiment [2] is less than 100 nM.
As for `O=C(NCC#CC(=O)N1CC(F)(F)C1)C(=O)NCc1ccccc1C(=O)NC1(c2ccc3ccccc3c2)CC1` [Example 535], the concentration giving a half-maximal response (EC50) was 1000 to 10000 nM in experiment [1] (setting [4]) and less than 1000 nM in experiment [3]. The IC50 in experiment [2] is less than 100 nM.
On the same counts, the results for `O=C(C#CCNC(=O)C(=O)NCc1ccccc1C(=O)NC1(c2ccc3ccccc3c2)CC1)NC1CC1` [Example 536] are less than 1000 nM, less than 1000 nM and less than 100 nM.
On the same counts, the results for `O=C(C#CCNC(=O)C(=O)NCc1ccccc1C(=O)NC1(c2ccc3ccccc3c2)CC1)N[C@]12C[C@](C(F)(F)F)(C1)C2` [Example 537] are less than 1000 nM, less than 1000 nM and less than 100 nM.
With `O=C(NC/C=C/C(=O)N1CCCO1)C(=O)NCc1ccccc1C(=O)NC1(c2cccc3ccccc23)CC1` [Example 568], the IC50 in experiment [2] was in the range of 100 to 1000 nM. The concentration giving a half-maximal response (EC50) in experiment [3] was 1000 to 10000 nM.
With `O=C(/C=C/CNC(=O)C(=O)NCc1ccccc1C(=O)NC1(c2cccc3ccccc23)CC1)Nc1ccccn1` [Example 569], the IC50 in experiment [2] lay within 100 to 1000 nM. Further, the EC50 in experiment [3] is less than 1000 nM.
The corresponding values for `CC(C)(C)OC(=O)/C=C/CNC(=O)C(=O)NCc1ccccc1C(=O)NC1(c2cccc3ccccc23)CC1` [Example 571] are 100 to 1000 nM and 1000 to 10000 nM.
`O=C(/C=C/CNC(=O)C(=O)NCc1ccccc1C(=O)NC1(c2cccc3ccccc23)CC1)NCC(F)(F)F` [Example 572]: in experiment [2], the IC50 lay within 100 to 1000 nM. The molecule further came in with an EC50 in experiment [3] of more than 10000 nM.
In the case of `CON(C)C(=O)/C=C/CNC(=O)C(=O)NCc1ccccc1C(=O)NC1(c2cccc3ccccc23)CC1` [Example 573], in experiment [2], the 50% inhibitory concentration (IC50) is 100 to 1000 nM. The EC50 in experiment [3] was in the range of 1000 to 10000 nM.
Take `N#Cc1cccc(NC(=O)/C=C/CNC(=O)C(=O)NCc2ccccc2C(=O)NC2(c3cccc4ccccc34)CC2)c1` [Example 574]: the IC50 in experiment [2] was in the range of 100 to 1000 nM. In experiment [3], this molecule yielded a concentration for a half-maximal effect (EC50) of 1000 to 10000 nM.
On the same counts, the results for `O=C(/C=C/CNC(=O)C(=O)NCc1ccccc1C(=O)NC1(c2cccc3ccccc23)CC1)NC1(C(F)(F)F)CC1` [Example 575] are 100 to 1000 nM and more than 10000 nM.
For `COC(=O)/C=C/CNC(=O)C(=O)NNc1ccccc1C(=O)NC1(c2cccc3ccccc23)CC1` [Example 576], the half-maximal inhibitory concentration (IC50) in experiment [2] was less than 100 nM. Besides, in experiment [3], the concentration for a half-maximal effect (EC50) was less than 1000 nM.
Consider `COc1cc(C2(NC(=O)c3ccccc3CNC(=O)C(=O)NC/C=C/c3ncccn3)CC2)cc2cn(C3CC3)nc12` [Example 577], for which the IC50 in experiment [2] is less than 100 nM. This molecule registered a concentration giving a half-maximal response (EC50) in experiment [3] of less than 1000 nM.
As to `O=C(NC/C=C/c1ncccn1)C(=O)NCc1ccccc1C(=O)NC1(c2ccc3ccccc3c2)CC1` [Example 582], in experiment [2], the concentration for half-maximal inhibition (IC50) was less than 100 nM. This molecule also displayed an EC50 in experiment [3] of less than 1000 nM.

As a reminder, the EC50 is the midpoint of the concentration-response curve. The IC50 is the point on the concentration scale where inhibition reaches its midpoint.
